Assays:
Type in all cases: binding
FUBI [1] = target: T1, FUBI (Homo sapiens, UniProt P62861); assay: photo-crosslinking, rhodamine-azide click, in-gel fluorescence
T1 construct: gene FAU; mature FUBI (74 residues, ends VAGRMLGG) cut from the FAU precursor (FUBI-eS30 fusion); E. coli BL21; GST-FUBI (pGEX-6P-1) for photolabelling; untagged FUBI (6-HIS-SUMO removed by ULP1) for HDX-MS; printed peptides 32-42 EGIAPEDQVVL and 67-74 VAGRMLGG
Text: photo-crosslinking, rhodamine-azide click, in-gel fluorescence on FUBI | recombinant preparations of FUBI, but not S30, were dose-dependently labeled by mCMN927

FAU = target: T2, FAU (Homo sapiens, UniProt P62861); assay: as above
T2 construct: uncleaved FAU precursor (FUBI fused to ribosomal protein S30); GST-tagged (pGEX-6P-1), E. coli BL21, glutathione agarose

FUBI [2] = target: T1, FUBI; assay: HDX-MS (also competition of probe labelling); conditions: untagged FUBI 5 µM, 600 µM compound, 20 mM Tris-HCl, 100 mM NaCl, pH 8.0, 25 °C; non-covalent; residues 32-42 and 67-74

C#CCCC1(CCN(C)CC2CCN(c3nc(-c4ccncc4)nc4ccccc34)CC2)N=N1 [mCMN927, {2-[3-(but-3-yn-1-yl)diazirin-3-yl]ethyl}(methyl)({1-[2-(pyridin-4-yl)quinazolin-4-yl]piperidin-4-yl}methyl)amine]
EC50 (FUBI [1]): 3.5 µM
EC50 (FAU): 4.3 µM

CN(C)CC1CCN(c2nc(-c3ccncc3)nc3ccccc23)CC1 [sCMF231]
HDX-MS (also competition of probe labelling) (FUBI [2]): sCMF231 treatment reduced deuterium exchange within two key regions

Reference: article doi:10.1101/2025.07.06.663376v1, “Fubylation as a Druggable Ubiquitin-Like Conjugation System Controlling Hippo Pathway Activity” (biorxiv, 2025)
